According to the OPERA property sets (Mansouri et al. 2018):
Peptide text beside a SMILES is read from it.

Question: With N#Cc1ccc(OCC(=O)O)cc1 as the compound, how does the logP read?
Answer: 0.93

Question: For c1ccc2ncccc2c1, which logP is on record?
Answer: 2.03

Question: For O=P(Oc1ccccc1)(Oc1ccccc1)Oc1ccccc1, which logP is on record?
Answer: 4.59

Question: With NNC(=O)c1ccccc1O as the compound, how does the logP read?
Answer: 0.6

Question: For CN(C)C=CC#N, which logP is on record?
Answer: 0.47

Question: For N#Cc1cccc(F)c1, which logP is on record?
Answer: 1.47

Question: With CNC(=O)OCc1c2c(n3c1C(OC(C)=O)CC3)C(=O)C=C(OC)C2=O (centres undefined) as the compound, how does the logP read?
Answer: 1.19

Question: For CCCCCOC(=O)Nc1ccccc1, which logP is on record?
Answer: 3.8

Question: For COc1cccc(C(=O)N(C)C)c1, which logP is on record?
Answer: 1

Question: Which logP does the source give for O=C(NN=Cc1ccoc1)Nc1ccccc1 here?
Answer: 2.52

Question: Which logP does the source give for CN(C)O here?
Answer: -1.15

Question: With Clc1cc(Cl)c(Cl)nc1Cl as the compound, how does the logP read?
Answer: 3.32

Question: Which logP does the source give for CCCCN1CCCCC1C(=O)Nc1c(C)cccc1C (centres undefined) here?
Answer: 3.41

Question: Which logP does the source give for COc1cc(NC(=O)NC(=N)N)ccc1C#N here?
Answer: 1.28

Question: For Clc1cccc(-c2cccc(Cl)c2Cl)c1, which logP is on record?
Answer: 5.57

Question: Which logP does the source give for CNC(=O)C1C(C)CC2C3CCC4=CC(=O)C=CC4(C)C3(F)C(O)CC21C (centres undefined) here?
Answer: 1.54

Question: With COC1=CC(=O)c2ccccc2C1=O as the compound, how does the logP read?
Answer: 1.35

Question: Which logP does the source give for CCC(C)(C)C here?
Answer: 3.82

Question: For CCCCCSCS(=O)CC(CO)NC(=O)C=Cc1c(C)[nH]c(=O)[nH]c1=O (centres undefined), which logP is on record?
Answer: 0.6

Question: For CCCCCCOC(=O)n1cnc(CC(NC(=O)C2CCC(=O)N2)C(=O)N2CCCC2C(N)=O)c1 (centres undefined), which logP is on record?
Answer: 0.71

Question: With Nc1ccc(S(=O)(=O)Nc2cccnc2Cl)cc1 as the compound, how does the logP read?
Answer: 1.58

Question: With c1ccc(-c2csnn2)cc1 as the compound, how does the logP read?
Answer: 2.42

Question: For O=C1C=CC(=O)c2c(O)cccc21, which logP is on record?
Answer: 1.92

Question: Which logP does the source give for S=C=Nc1cccc2ccccc12 here?
Answer: 4.34

Question: For Cc1cc(N)ncn1, which logP is on record?
Answer: 0.19

Question: For CNC(=NC#N)NCCSCc1ncccc1OC, which logP is on record?
Answer: 0.97

Question: With CNC(=O)Oc1ccccc1I as the compound, how does the logP read?
Answer: 1.94

Question: For O=C(O)COc1cccc(Cl)c1, which logP is on record?
Answer: 2.03

Question: Which logP does the source give for CCCC(=O)OCC(O)CO (centres undefined) here?
Answer: -0.17

Question: For NC(=O)c1cccnc1, which logP is on record?
Answer: -0.37

Question: For COC(=O)CCC(NC(=O)c1ccc(N(C)Cc2cnc3nc(N)nc(N)c3n2)cc1)C(=O)OC (centres undefined), which logP is on record?
Answer: 0.54

Question: With O=C(O)c1cc(Cl)ccc1O as the compound, how does the logP read?
Answer: 3.09

Question: With Cc1c(Cl)cccc1Nc1ccccc1CC(=O)O as the compound, how does the logP read?
Answer: 4.64

Question: Which logP does the source give for CNc1c(NCCSCc2nc[nH]c2C)c(=O)c1=O here?
Answer: -0.08

Question: With CCCCCCCCOc1ccc(NC(=O)OCCN2CCCCC2)cc1 as the compound, how does the logP read?
Answer: 6.44

Question: With Oc1ccc(Cl)cc1Cc1cc(Cl)ccc1O as the compound, how does the logP read?
Answer: 4.26

Question: For CCc1cccc(CC)c1N(COC)C(=O)CCl, which logP is on record?
Answer: 3.52

Question: With CCCCNCc1cccnc1 as the compound, how does the logP read?
Answer: 1.34

Question: With CCCCCCC(=O)NN as the compound, how does the logP read?
Answer: 0.97

Question: For Cc1ccc2cccc(O)c2n1, which logP is on record?
Answer: 2.33

Question: For COP(=O)(OC)SCn1nnc2ccccc2c1=O, which logP is on record?
Answer: 0.78

Question: Which logP does the source give for CCCCOCCCC here?
Answer: 3.21

Question: For CCOC(=O)CN(C(=O)CCl)c1c(CC)cccc1CC, which logP is on record?
Answer: 3.6

Question: With NCCCc1ccccc1 as the compound, how does the logP read?
Answer: 1.83

Question: Which logP does the source give for CCCCN(CCCC)CC(O)c1ccccc1 (centres undefined) here?
Answer: 3.16

Question: For CN(C)C(=O)Nc1ccc(Cl)c(Cl)c1, which logP is on record?
Answer: 2.68

Question: With CCOC(=O)[C@H](O)[C@@H](O)C(=O)OCC as the compound, how does the logP read?
Answer: -0.29

Question: With CN(C)C(N(C)C)=S(I)c1ccc(Br)cc1 (centres undefined) as the compound, how does the logP read?
Answer: 0.06

Question: Which logP does the source give for CCOC(=O)C(Cl)(Cl)Cl here?
Answer: 2.39

Question: Which logP does the source give for O=C(O)c1ccccc1Oc1ccccc1 here?
Answer: 3.11

Question: With OCc1ccc(Cl)cc1 as the compound, how does the logP read?
Answer: 1.96

Question: With NC(=O)c1ccc(N)cc1 as the compound, how does the logP read?
Answer: -0.41

Question: For O=COc1ccccc1, which logP is on record?
Answer: 1.26

Question: Which logP does the source give for CCC(N)=O here?
Answer: -0.66

Question: With O=NN1CCCC1 as the compound, how does the logP read?
Answer: -0.19

Question: With CCOc1cccc(O)c1 as the compound, how does the logP read?
Answer: 1.98

Question: For CCC(Br)(CC)C(=O)NC(N)=O, which logP is on record?
Answer: 1.54

Question: Which logP does the source give for C=CC(=O)OCC here?
Answer: 1.32

Question: For ONc1ccccc1, which logP is on record?
Answer: 0.79

Question: For CCOC(=O)c1ccc(O)cc1, which logP is on record?
Answer: 2.47

Question: Which logP does the source give for COc1cc(C(O)CN)ccc1O (centres undefined) here?
Answer: -1.05

Question: Which logP does the source give for Oc1nc2ccccc2s1 here?
Answer: 1.76

Question: Which logP does the source give for CC(=O)c1ccccn1 here?
Answer: 0.85

Question: For Clc1ccc(-c2ccccc2)cc1, which logP is on record?
Answer: 4.61

Question: With CC12CC3CC(C)(C1)CC(N)(C3)C2 as the compound, how does the logP read?
Answer: 3.28

Question: With Cc1ccc(NC(=O)c2cccnc2)cc1 as the compound, how does the logP read?
Answer: 2.08

Question: Which logP does the source give for Cc1c(O)c(=O)ccn1CCN here?
Answer: -1.55

Question: Which logP does the source give for O=C(Oc1ccccc1)n1c(=O)[nH]cc(F)c1=O here?
Answer: 1.73

Question: With Fc1cc(F)cc(Cn2cc[nH]c2=S)c1 as the compound, how does the logP read?
Answer: 1.98

Question: Which logP does the source give for O=[N+]([O-])c1ccc2c(c1)c([N+](=O)[O-])cc[n+]2[O-] here?
Answer: 0.9

Question: For CCCCNC(=O)Cn1cnc([N+](=O)[O-])n1, which logP is on record?
Answer: 0.89

Question: For O=[N+]([O-])C=Cc1cccc([N+](=O)[O-])c1, which logP is on record?
Answer: 1.82

Question: With COc1cccc(OC(=O)c2ccc(N)cc2O)c1 as the compound, how does the logP read?
Answer: 3.25

Question: Which logP does the source give for OC(c1ccccc1)(c1cncnc1)c1ccc(Cl)cc1Cl (centres undefined) here?
Answer: 2.56

Question: Which logP does the source give for c1ccc(-c2cc(-c3ccccc3)c(NCCN3CCOCC3)nn2)cc1 here?
Answer: 3.38

Question: For C=CC=C, which logP is on record?
Answer: 1.99

Question: Which logP does the source give for O=C(O)CNC(=O)c1ccccc1 here?
Answer: 0.31

Question: Which logP does the source give for CCOC(=O)C(=Cc1ccccc1)C(C)=O here?
Answer: 2.21

Question: For CNC(=S)NNc1ccccc1, which logP is on record?
Answer: 1.17

Question: With CCSC(=O)N(CC(C)C)CC(C)C as the compound, how does the logP read?
Answer: 4.15

Question: For NC1CC1, which logP is on record?
Answer: 0.07

Question: Which logP does the source give for O=C(O)C(c1ccc(-c2ccccc2)cc1)C(O)c1cccc(F)c1 (centres undefined) here?
Answer: 3.31

Question: Which logP does the source give for COc1ccc(CCNCC(O)COc2cccc(C)c2)cc1OC (centres undefined) here?
Answer: 3

Question: For N#C/C=C/c1ccccc1, which logP is on record?
Answer: 1.96

Question: For CNC(=O)Oc1ccccc1OC, which logP is on record?
Answer: 0.81

Question: Which logP does the source give for CC(=O)N[C@@H](Cc1ccc(O)cc1)C(=O)N[C@@H](CC(C)C)C(N)=O (Ac-Tyr-Leu-NH2) here?
Answer: 0.32

Question: With O=C(O)C(c1ccccc1)n1cccc1 (centres undefined) as the compound, how does the logP read?
Answer: 1.57

Question: Which logP does the source give for O=c1[nH]cc(F)c(=O)[nH]1 here?
Answer: -0.89

Question: With O=C(O)CC(O)C(=O)O (centres undefined) as the compound, how does the logP read?
Answer: -1.26

Question: Which logP does the source give for Cc1ccc(/C(=C\CN2CCCC2)c2ccccn2)cc1 here?
Answer: 3.92

Question: For CNC(=O)c1ccccc1C(=O)c1ccccc1, which logP is on record?
Answer: 2.09

Question: For CC(C)(Oc1ccccc1)C(=O)N[C@@H]1C(=O)N2[C@@H]1SC(C)(C)[C@@H]2C(=O)O, which logP is on record?
Answer: 2.76

Question: For O=C(O)CCl, which logP is on record?
Answer: 0.22

Question: Which logP does the source give for O=C(O)CCCc1c[nH]c2ccccc12 here?
Answer: 2.3

Question: Which logP does the source give for CCN(CC)N=Nc1ccc([N+](=O)[O-])cc1 here?
Answer: 4.17

Question: For O=c1cccccc1O, which logP is on record?
Answer: 0.53

Question: Which logP does the source give for O=C(O)C=Cc1ccc([N+](=O)[O-])cc1 here?
Answer: 2.12

Question: With O=[N+]([O-])c1ccc(O/N=C/c2cc(Br)c(O)c(Br)c2)c([N+](=O)[O-])c1 as the compound, how does the logP read?
Answer: 3.3

Question: With Nc1cccc(O)c1 as the compound, how does the logP read?
Answer: 0.21

Question: For N#Cc1c2ccccc2cc2ccccc12, which logP is on record?
Answer: 4.26

Question: For O=c1[nH]cc(C(F)(F)F)c(=O)[nH]1, which logP is on record?
Answer: 0.04

Question: For NCCc1c[nH]c2ccc(O)cc12, which logP is on record?
Answer: 0.21

Question: Which logP does the source give for COc1cc([C@@H]2c3cc4c(cc3C(O[C@@H]3O[C@@H]5CO[C@@H](C)O[C@H]5[C@H](O)[C@H]3O)C3COC(=O)[C@@H]32)OCO4)cc(OC)c1O (some centres undefined) here?
Answer: 0.6

Question: With O=C(CN1CCCCC1)Nc1ccccc1F as the compound, how does the logP read?
Answer: 2.16

Question: For CCOC(=O)NCCOc1ccc(Oc2ccccc2)cc1, which logP is on record?
Answer: 4.3

Question: Which logP does the source give for O=C(O)Cc1ccccc1Nc1c(Cl)cc(O)cc1Cl here?
Answer: 3.7

Question: Which logP does the source give for Cc1ccnc2ccccc12 here?
Answer: 2.61

Question: With O=C(O)c1ccc([N+](=O)[O-])cc1Cl as the compound, how does the logP read?
Answer: 2.03

Question: With C[C@]12CC[C@H](O)C[C@H]1CC[C@@H]1[C@@H]2C[C@@H](O)[C@]2(C)[C@@H](C3=CC(=O)OC3)CC[C@]12O as the compound, how does the logP read?
Answer: 1.1

Question: With COP(=S)(OC)Oc1ccc(S(=O)(=O)N(C)C)cc1 as the compound, how does the logP read?
Answer: 2.23

Question: Which logP does the source give for COP(=S)(OC)Oc1nc(Cl)c(Cl)cc1Cl here?
Answer: 4.31

Question: With COC(=O)C(=Cc1ccccc1)C(=O)OC as the compound, how does the logP read?
Answer: 2.24

Question: With CCCCC[C@H](O)/C=C/[C@H]1[C@H](O)CC(=O)[C@@H]1C/C=C\CCCC(=O)O as the compound, how does the logP read?
Answer: 2.82

Question: Which logP does the source give for CC(=O)Nc1cccnc1 here?
Answer: 0.41
